PubChem BioAssay AID330 (DTP/NCI, 2004)
Values joined by “and” are separate entries in the source; they are usually repeats but may differ in a detail not shown here. Equal entries are not always repeated. Toxic doses and inconclusive results are not listed.

Tested on: P388 leukemia ip, CD2F1 mice, survival T/C
Assay: NCI In Vivo Anticancer Drug Screen. Data for tumor model P388 Leukemia (intraperitoneal) in CD2F1 (CDF1) mice
Settings: endpoint: median survival time, higher = longer survival
In short: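 Mice carrying the transplanted tumor received test compound or vehicle. Survival was recorded in each group, and the value is the treated-group measurement divided by that of the vehicle-treated control group.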

[1] = dose: 50.0 mg/kg/injection, schedule: Q01DX005 (ip), vehicle: Klucel (hydroxypropylcellulose) (HPC)
[2] = dose: 100.0 mg/kg/injection, schedule: Q01DX005 (ip), vehicle: Klucel (hydroxypropylcellulose) (HPC)
[3] = dose: 200.0 mg/kg/injection, schedule: Q01DX005 (ip), vehicle: Klucel (hydroxypropylcellulose) (HPC)
[4] = dose: 50.0 mg/kg/injection, schedule: Q01DX009 (ip), vehicle: saline with Tween-80
[5] = dose: 100.0 mg/kg/injection, schedule: Q01DX009 (ip), vehicle: saline with Tween-80
[6] = dose: 200.0 mg/kg/injection, schedule: Q01DX009 (ip), vehicle: saline with Tween-80
[7] = dose: 7.5 mg/kg/injection, schedule: Q01DX005 (ip), vehicle: saline
[8] = dose: 15.0 mg/kg/injection, schedule: Q01DX005 (ip), vehicle: saline

## C(=N/NC1=NCCN1)/c1c2ccccc2c(/C=N\NC2=NCCN2)c2ccccc12
dose: 0.05 mg/kg/injection, schedule: Q01DX009 (ip), vehicle: saline
  T/C: 155 % of control
dose: 0.2 mg/kg/injection, schedule: Q01DX009 (ip), vehicle: saline
  T/C: 161 % of control
dose: 0.39 mg/kg/injection, schedule: Q01DX009 (ip), vehicle: saline
  T/C: 183 % of control
dose: 0.78 mg/kg/injection, schedule: Q01DX009 (ip), vehicle: saline
  T/C: 238 % of control
dose: 1.56 mg/kg/injection, schedule: Q01DX009 (ip), vehicle: saline
  T/C: 188 % of control and 193 % of control
dose: 3.12 mg/kg/injection, schedule: Q01DX009 (ip), vehicle: saline
  T/C: 204 % of control
dose: 5.18 mg/kg/injection, schedule: Q04DX002 (ip), vehicle: saline
  T/C: 181 % of control
dose: 6.25 mg/kg/injection, schedule: Q01DX009 (ip), vehicle: saline
  T/C: 193 % of control
dose: 7.78 mg/kg/injection, schedule: Q04DX002 (ip), vehicle: saline
  T/C: 228 % of control
dose: 8.64 mg/kg/injection, schedule: Q04DX002 (ip), vehicle: saline
  T/C: 227 % of control
dose: 12.5 mg/kg/injection, schedule: Q01DX009 (ip), vehicle: saline
  T/C: 225 % of control
dose: 13.0 mg/kg/injection, schedule: Q04DX002 (ip), vehicle: saline
  T/C: 166 % of control
dose: 14.4 mg/kg/injection, schedule: Q04DX002 (ip), vehicle: saline
  T/C: 181 % of control
dose: 21.6 mg/kg/injection, schedule: Q04DX002 (ip), vehicle: saline
  T/C: 184 % of control
dose: 24.0 mg/kg/injection, schedule: Q04DX002 (ip), vehicle: saline
  T/C: 200 % of control
dose: 25.0 mg/kg/injection, schedule: Q01DX009 (ip), vehicle: saline
  T/C: 121 % of control
dose: 29.0 mg/kg/injection, schedule: Q01DX001 (ip), vehicle: water
  T/C: 195 % of control
dose: 36.0 mg/kg/injection, schedule: Q04DX002 (ip), vehicle: saline
  T/C: 210 % of control
dose: 40.0 mg/kg/injection, schedule: Q04DX002 (ip), vehicle: saline
  T/C: 181 % of control
dose: 60.0 mg/kg/injection, schedule: Q04DX002 (ip), vehicle: saline
  T/C: 192 % of control
dose: 87.0 mg/kg/injection, schedule: Q01DX001 (ip), vehicle: water
  T/C: 222 % of control
dose: 133.0 mg/kg/injection, schedule: Q01DX001 (ip), vehicle: water
  T/C: 236 % of control
dose: 200.0 mg/kg/injection, schedule: Q01DX001 (ip), vehicle: water
  T/C: 286 % of control
dose: 1.57 micrograms/kg/injection, schedule: Q01DX009 (ip), vehicle: saline
  T/C: 100 % of control
dose: 3.13 micrograms/kg/injection, schedule: Q01DX009 (ip), vehicle: saline
  T/C: 99 % of control
dose: 6.25 micrograms/kg/injection, schedule: Q01DX009 (ip), vehicle: saline
  T/C: 107 % of control
dose: 12.5 micrograms/kg/injection, schedule: Q01DX009 (ip), vehicle: saline
  T/C: 104 % of control
dose: 25.0 micrograms/kg/injection, schedule: Q01DX009 (ip), vehicle: saline
  T/C: 109 % of control
dose: 50.0 micrograms/kg/injection, schedule: Q01DX009 (ip), vehicle: saline
  T/C: 122 % of control

## Cc1nc(N)[nH]c(=O)c1CCc1ccccc1
dose: 60.0 mg/kg/injection, schedule: Q01DX005 (ip), vehicle: saline
  T/C: 97 % of control
dose: 120.0 mg/kg/injection, schedule: Q01DX005 (ip), vehicle: saline
  T/C: 99 % of control
dose: 240.0 mg/kg/injection, schedule: Q01DX005 (ip), vehicle: saline
  T/C: 98 % of control

## CC(=O)CC(c1ccccc1)C(C#N)c1ccccc1 (configuration not stated)
dose: 12.5 mg/kg/injection, schedule: Q04DX003 (ip), vehicle: Klucel (hydroxypropylcellulose) (HPC)
  T/C: 118 % of control
dose: 25.0 mg/kg/injection, schedule: Q04DX003 (ip), vehicle: Klucel (hydroxypropylcellulose) (HPC)
  T/C: 106 % of control
dose: 50.0 mg/kg/injection, schedule: Q04DX003 (ip), vehicle: Klucel (hydroxypropylcellulose) (HPC)
  T/C: 106 % of control

## Cc1nc2cc3ccccc3cc2nc1C
[1]
  T/C: 100 % of control
[2]
  T/C: 99 % of control
[3]
  T/C: 100 % of control

## CC(=O)OCC1OC(n2nnc(CCl)c2CCl)C(OC(C)=O)C(OC(C)=O)C1OC(C)=O (configuration not stated)
[4]
  T/C: 110 % of control
[5]
  T/C: 98 % of control
[6]
  T/C: 117 % of control

## C[N+](C)(C)C.[CH-]1CCCCC1.[CH-]1CCCCC1.[CH-]1CCCCC1.[Cl-].[Cl-].[Sn+4]
dose: 3.12 mg/kg/injection, schedule: Q01DX005 (ip), vehicle: saline with Tween-80
  T/C: 108 % of control
dose: 6.25 mg/kg/injection, schedule: Q01DX005 (ip), vehicle: saline with Tween-80
  T/C: 101 % of control

## O=C(/C=C/c1ccco1)c1ccc(Cl)cc1
dose: 50.0 mg/kg/injection, schedule: Q01DX001 (ip), vehicle: saline sonified
  T/C: 100 % of control
dose: 100.0 mg/kg/injection, schedule: Q01DX001 (ip), vehicle: saline sonified
  T/C: 95 % of control
dose: 200.0 mg/kg/injection, schedule: Q01DX001 (ip), vehicle: saline sonified
  T/C: 100 % of control

## CCOC(=O)c1c[n+](C2OC(COC(=O)c3ccccc3)C(OC(=O)c3ccccc3)C2OC(=O)c2ccccc2)ccc1N (configuration not stated)
dose: 12.5 mg/kg/injection, schedule: Q01DX005 (ip), vehicle: saline with Tween-80
  T/C: 98 % of control
dose: 25.0 mg/kg/injection, schedule: Q01DX005 (ip), vehicle: saline with Tween-80
  T/C: 107 % of control
dose: 50.0 mg/kg/injection, schedule: Q01DX005 (ip), vehicle: saline with Tween-80
  T/C: 105 % of control and 92 % of control

## CNCC1CCCCC1NC (configuration not stated)
dose: 50.0 mg/kg/injection, schedule: Q04DX003 (ip), vehicle: saline
  T/C: 99 % of control
dose: 100.0 mg/kg/injection, schedule: Q04DX003 (ip), vehicle: saline
  T/C: 97 % of control
dose: 200.0 mg/kg/injection, schedule: Q04DX003 (ip), vehicle: saline
  T/C: 96 % of control

## CCCCCCCCC#CC(=O)O
[4]
  T/C: 94 % of control
[5]
  T/C: 95 % of control
[6]
  T/C: 86 % of control

## C1CCC(C2CCCC[N-]2)[N-]C1.[Cl][Ru+2][Cl] (configuration not stated)
[7]
  T/C: 103 % of control
[8]
  T/C: 100 % of control
dose: 30.0 mg/kg/injection, schedule: Q01DX005 (ip), vehicle: saline
  T/C: 103 % of control

## CCc1nc(N)nc(N)c1-c1ccc(NCCc2ccccc2)c(N)c1
[1]
  T/C: 90 % of control
[2]
  T/C: 96 % of control
[3]
  T/C: 100 % of control

## CN1CNC(=O)c2n[nH]nc21
dose: 12.5 mg/kg/injection, schedule: Q04DX002 (ip), vehicle: Klucel (hydroxypropylcellulose) (HPC)
  T/C: 99 % of control
dose: 25.0 mg/kg/injection, schedule: Q04DX002 (ip), vehicle: Klucel (hydroxypropylcellulose) (HPC)
  T/C: 108 % of control
dose: 50.0 mg/kg/injection, schedule: Q04DX002 (ip), vehicle: Klucel (hydroxypropylcellulose) (HPC)
  T/C: 100 % of control and 102 % of control

## CCCCCC(CN1CCOCC1)C(=O)/C=C/c1ccccc1 (configuration not stated)
[4]
  T/C: 102 % of control
[5]
  T/C: 102 % of control
[6]
  T/C: 101 % of control

## C[C@@H]1O[C@H]2O[C@@H]3[C@@H](C)O[C@@H](c4ccc5c(c4O)C(=O)c4ccc(C[C@@](C)(O)CC(=O)O)c(O)c4C5=O)C[C@H]3O[C@H]2CC1=O
dose: 23.5 mg/kg/injection, schedule: Q01DX005 (ip), vehicle: Klucel (hydroxypropylcellulose) (HPC)
  T/C: 105 % of control
dose: 47.0 mg/kg/injection, schedule: Q01DX005 (ip), vehicle: Klucel (hydroxypropylcellulose) (HPC)
  T/C: 105 % of control
dose: 94.0 mg/kg/injection, schedule: Q01DX005 (ip), vehicle: Klucel (hydroxypropylcellulose) (HPC)
  T/C: 97 % of control

## CCN(CC)CCOc1cccc(C)c1C
dose: 25.0 mg/kg/injection, schedule: Q01DX009 (ip), vehicle: saline with Tween-80
  T/C: 100 % of control
[4]
  T/C: 95 % of control
[5]
  T/C: 104 % of control

## COC(=O)c1nc(N)nc(C(=O)OC)c1C(=O)c1ccco1
dose: 60.0 mg/kg/injection, schedule: Q01DX005 (ip), vehicle: Klucel (hydroxypropylcellulose) (HPC)
  T/C: 101 % of control
dose: 120.0 mg/kg/injection, schedule: Q01DX005 (ip), vehicle: Klucel (hydroxypropylcellulose) (HPC)
  T/C: 103 % of control

## O=C(NNC(=O)C12CC3CC(CC(C3)C1)C2)C12CC3CC(CC(C3)C1)C2
dose: 25.0 mg/kg/injection, schedule: Q01DX005 (ip), vehicle: Klucel (hydroxypropylcellulose) (HPC)
  T/C: 105 % of control
[1]
  T/C: 102 % of control
[2]
  T/C: 105 % of control
[3]
  T/C: 105 % of control

## C=C1[C@@H](O)C[C@@H]2C[C@@]3(C)[C@H](C(C)(C)C[C@@H]3O)C12O (some centres not stated)
dose: 3.75 mg/kg/injection, schedule: Q01DX005 (ip), vehicle: saline
  T/C: 98 % of control
[7]
  T/C: 100 % of control
[8]
  T/C: 98 % of control
